From patent US20050215635A1, “Diarylheptanoid compounds and uses thereof” (priority 2004, published 2005)
“Also recorded” adds a separate entry of the source.

Legend:
[1] = tested on: LPS induced NO production from mouse macrophage cells (RAW 264.7); experiment: Nitric oxide measurement (nitrite, Griess reagent) in LPS-treated RAW 264.7 cells; assay type: cell-based; conditions: RAW 264.7, 24 hrs
Experimental: The mouse macrophage cells (RAW 264.7) were cultured in DMEM supplemented with 15% fetal bovine serum (FBS) and antibiotic and antimycotic mixture. The cell suspension of 50,000 cells/well was cultured in flat bottom microtitre plate in quadruplicate for 12 hrs. Thereafter, 100 μl of media was replaced with fresh medium containing either LPS (0.5 μg/ml) alone or LPS with various concentrations of HMP and further cultured for 24 hrs. The culture supernatant was collected at the end of culture for nitrite assay, which was used as a measure of NO production. Culture supernatant (100 μl) was mixed with equal volume of Griess reagent (SIGMA, MO, USA) and the absorbance was measured at 570 nm. The concentration of nitrite (μM) was calculated from standard curve drawn with known concentration of sodium nitrite dissolved in DMEM. The results are presented as mean ±SD of 4 replicates of one representative experiment and this experiment was repeated 5 times. For the NO assay, RAW 264.7 cells were treated with LPS (0.5 μg/ml) and/or various concentrations of HMP for 24 hrs and amount of nitrite in supernatant from each treatment group was measured using Griess reagent. Each data point represents mean+standard deviation (SD) of 5 replicates of one representative experiment of total 6 experiments.

p38 MAPK phosphorylation = experiment: Western blotting of LPS induced phosphorylation of p38 MAPK in RAW 264.7 cells; assay type: cell-based, mouse; conditions: HMP 25 μM + LPS (0.5 μg/ml), RAW 264.7, 30 min and 60 min
Experimental: FIG. 5A and 5B. Effect of HMP on LPS induced MAPKs activation. FIG. 5A, Total protein lysates of RAW 264.7 were prepared after treatment with HMP and/or LPS for indicated times and 40 μg of protein lysates were resolved and probed for phosphorylated (pp44/42 and pp38) and basal p44/42 and p38, using specific monoclonal antibodies as described in material and methods. FIG. 5B, Integrated density of phosphorylated p44/42 (pp44/42) as measured by Scion software. This experiment was repeated 4 times with similar results.
At indicated time points, cells were rapidly washed with ice-cold PBS and solubilized in cold lysis buffer containing 10 mM Tris-base, 5 mM EDTA, 50 mM NaCl, 1% Triton X-100, 5 mM phenylmethylsulfonyl fluoride (PMSF), 2 mM sodium orthovanadate, 10 μg/ml leupeptin, 25 μg/ml aprotinin, 1 mM sodium pyrophosphate, and 20% glycerol. […]
Equal amount of protein (40 μg) from each sample was loaded on SDS-polyacrylamide electrophoresis gel (8 and 10% separating gels for iNOS and p42/44^MAPK, respectively) and resolved for 1.5 h at 120 V in buffer containing 95 mM Tris-HCl, 960 mM glycine, and 0.5% SDS. […] Specific bands were detected by enhanced chemiluminescence's detection system (Amersham-Pharmacia biotech, NJ, USA) and the membrane was exposed to X-ray film. […]

[2] = tested on: Du-145 prostate tumor cells; experiment: MTT-microculture tetrazolium cell viability assay / induction of apoptosis in Du-145; assay type: cell-based
Experimental: The rhizomes of Alpinia officinarum were purchased from Nuherbs Co. (Oakland, Calif.). Du-145 prostate tumor cells were obtained from the American Type Culture Collection (ATCC). Cells were maintained at 37° C. in an atmosphere of 5% CO2 and grown in Roswell Park Memorial Institute (RPMI) media 1640 (GIBCO/BRL) with 10% fetal bovine serum and with 5% penicillin and streptomycin.
The powdered roots of Alpinia officinarum were extracted with methanol and concentrated under vacuum using rotary evaporation. The dried residue was then partitioned with hexanes, ethyl acetate and 1-butanol successively. The three extracts were subjected to bioassays.
The dried ethyl acetate extract was then chromatographed on a normal phase silica gel column (2.5×30 cm) to perform bioassay-directed fractionation. The extract was first dissolved in methanol and loaded onto the column packing material. The prepared extract was then placed on top of the column and elution was performed using a solvent mixture of chloroform/methanol with an increasing amount of methanol (30:1, 20:1, 10:1, 5:1, 0:100; each 1000 mL). Successive fractions were collected and tested for biological activity. […] This fraction was then rechromatographed on a semipreparative Zorbax Rx-C18 reversed phase HPLC column (9.4 mm×240 mm, 5 μm) purchased from MacMod Analytical (Chadds Ford, Pa.). Compounds were eluted by an isocratic solvent system: 55% A, water with 0.05% formic acid (FA); 45% B, ACN (v/v) at a flow rate of 4 mL/min. The wavelength monitored was 205 nm. Successive fractions (1-3) were collected and sent for biological testing again.
Cellular growth in the presence or absence of experimental agents was determined using the modified method as previously described MTT-microculture tetrazolium assay (World Health Organization (ED.), Medicinal Plants in China, WHO Regional Publications, 1989, 21). Briefly, rapidly growing cells were harvested, counted, and inoculated at the appropriate concentrations (100 μL volume) into 96-well micro-titer plates using a multichannel pipet. After 24 hours, AO-1 to AO-5 were applied in different concentrations to triplicate culture wells, and cultures were incubated for 72 hours at 37° C. MTT ( Sigma, St. Louis, Mo.) was prepared at 2 mg/ml in Phosphate buffered saline (PBS) and 50 μL were added to microculture wells. After 4 hour incubation at 37° C., […] were removed from each well, and 150 μL of 100% DMSO were added to solubilize the MTT-formazan product. After thorough mixing with a mechanical plate mixer, absorbence was measured at 570 nm using a Dynatech microplate reader. […] This assay is based on the reduction of MTT tetrazolium salt to a formazan product by the metabolic activity of live cells and which was measured in a multiwell scanning spectrophotometer. Cell line growth and growth inhibition were expressed in terms of mean absorbance units and following the substraction of mean background absorbance.

## COc1cc(CC/C=C/C(=O)CCc2ccccc2)ccc1O [AO-4, 7-(4″-hydroxy-3″-methoxyphenyl)-1-phenyl-hept-4-en-3-one]
[1]; HMP 6.25 μM + LPS (0.5 μg/ml)
  Nitrite: 14.54 ± 2.5 µM
[1]; HMP 6.25 μM alone
  Nitrite: 3.66 ± 1.08 µM
[1]; HMP 12.5 μM + LPS (0.5 μg/ml)
  Nitrite: 13.75 ± 2.65 µM
[1]; HMP 12.5 μM alone
  Nitrite: 3.88 ± 1.14 µM
[1]; HMP 25 μM + LPS (0.5 μg/ml)
  Nitrite: 9.95 ± 1.41 µM
[1]; HMP 25 μM alone
  Nitrite: 3.86 ± 0.97 µM
[1]; HMP 6.25-25 μM + LPS (0.5 μg/ml)
  LPS induced production of nitric oxide (in words): significantly inhibited by HMP in a dose dependent manner
[1]; HMP alone
  NO production, HMP alone (in words): no effect on NO production
p38 MAPK phosphorylation
  LPS induced phosphorylation of p38 (in words): no effect
[2]; Homo sapiens, Du-145 prostate tumor cells, MTT, 72 hours incubation, drug concentration giving 50% inhibition of growth, read-out: IC50 (μM), Effects of Diarylheptanoids on Inducing Apoptosis in DU-145 Cancer Cell Line
  IC50: 12.5 µM
[2]; bioassay-directed fractionation of Alpinia officinarum
  activity in bioassay: inducing apoptosis in Du-145 cancer cell line (in words): some activity; also recorded: most potent
